Our source for the MIC and zone of inhibition values is US4647572A, “Iodoallyl and iodopropargyl substituted tetrazoles and anti-microbial compositions thereof” (Meiji Seika Kaisha, Ltd., priority 1982, dated 1987).

≈ marks a conversion by molar mass, not a printed value. Read-outs that look alike come from different tables or passages of the source.

Holding throughout (assay type): cell-based
For assay [1], the system named is Staphylococcus aureus 209P JC-1. In words: Minimal Inhibitory Concentration Method. Conditions: read-out: Minimal Inhibitory Conc.
For assay [2], the system named is Staphylococcus epidermidis ATCC 14990. In words: Minimal Inhibitory Concentration Method. Conditions: ATCC14990, read-out: Minimal Inhibitory Conc.
For assay [3], the system named is Bacillus subtilis ATCC 6633. In words: Minimal Inhibitory Concentration Method. The note with it: ATCC6633, read-out: Minimal Inhibitory Conc.
The test system of another assay is Escherichia coli No. 29. As to the kind of experiment: Minimal Inhibitory Concentration Method. Conditions: read-out: Minimal Inhibitory Conc.
The next assay has as its system Salmonella typhi 0-901-W. As to the kind of experiment: Minimal Inhibitory Concentration Method. The note with it: Salmonella enterica, read-out: Minimal Inhibitory Conc.
Another assay deals with Shigella dysenteriae. As to the kind of experiment: Minimal Inhibitory Concentration Method. Conditions: read-out: Minimal Inhibitory Conc.
In a further assay the test system is Proteus vulgaris OX-19. As to the kind of experiment: Minimal Inhibitory Concentration Method.
Assay [4] has as its system Serratia marcescens MB-3848. In words: Minimal Inhibitory Concentration Method.
Assay [5] relates to Pseudomonas cepacia M-0527. As to the kind of experiment: Minimal Inhibitory Concentration Method. Conditions: Burkholderia cepacia, M0527, read-out: Minimal Inhibitory Conc.
Assay [6] deals with Bacillus anthracis No. 119. In words: microbe, parasite or virus in culture. Conditions: NO.119, read-out: Minimal Inhibitory Conc.
Assay [7] relates to Escherichia coli NIHJ JC-2. As to the kind of experiment: Minimal Inhibitory Concentration Method. The note with it: NIHJJC2, read-out: Minimal Inhibitory Conc.
Assay [8] relates to Shigella sonnei EW 33 type I. As to the kind of experiment: Minimal Inhibitory Concentration Method. The note with it: EW33TYPEI, read-out: Minimal Inhibitory Conc. The text has this: (Minimal Inhibitory Concentration Method)
Minimal Inhibitory Conc. (mcg/ml)

The test system of assay [9] is Klebsiella pneumoniae PCI 602. In words: Minimal Inhibitory Concentration Method. The note with it: PCI602, read-out: Minimal Inhibitory Conc.
Assay [10] relates to Pseudomonas maltiophilia M-0627. In words: Minimal Inhibitory Concentration Method. The note with it: M0627, read-out: Minimal Inhibitory Conc.
Another assay has as its system Candida albicans GA-24. As to the kind of experiment: Antifungal Activity MIC (in medicinal field). Conditions: GA24, read-out: Minimal Inhibitory Concentration (MIC).
For assay [11], the system named is Cryptococcus neoformans Cr-1. In words: Antifungal Activity MIC (in medicinal field). The note with it: CR1, read-out: Minimal Inhibitory Concentration (MIC).
Assay [12] concerns Trichophyton metagrophytes 530324. In words: Antifungal Activity MIC (in medicinal field). The note with it: read-out: Minimal Inhibitory Concentration (MIC).
In assay [13] the test system is Trichophyton interdigitale. In words: Antifungal Activity MIC (in medicinal field). Conditions: read-out: Minimal Inhibitory Concentration (MIC).
Assay [14] has as its system Aspergillus fumigatus Saito. As to the kind of experiment: Antifungal Activity MIC (in medicinal field). Conditions: read-out: Minimal Inhibitory Concentration (MIC).
Assay [15] deals with Staphylococcus aureus 209P. In words: Antibacterial activity (Paper-disc method). The note with it: read-out: Inhibition zone diameter; for zone of inhibition at 250 µg/mL: 250 γ/ml; for zone of inhibition at 500 µg/mL: 500 γ/ml.
For a further assay, the system named is Bacillus subtilis. As to the kind of experiment: Antibacterial activity (Paper-disc method). Conditions: read-out: Inhibition zone diameter; for zone of inhibition at 250 µg/mL: 250 γ/ml; for zone of inhibition at 500 µg/mL: 500 γ/ml.
Another assay has as its system Sarcina lutea. As to the kind of experiment: Antibacterial activity (Paper-disc method). The note with it: Micrococcus luteus, read-out: Inhibition zone diameter; for zone of inhibition at 250 µg/mL: 250 γ/ml; for zone of inhibition at 500 µg/mL: 500 γ/ml.
For assay [16], the system named is Escherichia coli NIHJ JC-2. As to the kind of experiment: Antibacterial activity (Paper-disc method). The note with it: read-out: Inhibition zone diameter; for zone of inhibition at 250 µg/mL: NIHJJC2, 250 γ/ml; for zone of inhibition at 500 µg/mL: NIHJJC2, 500 γ/ml.
[17] abbreviates: Staphylococcus aureus 209P JC-1.
[18] abbreviates: OX19, Proteus vulgaris OX-19, read-out: Minimal Inhibitory Conc.
Setting [19] is: MB3848, Serratia marcescens MB-3848, read-out: Minimal Inhibitory Conc.
The mark [20] stands for this setting: Proteus vulgaris, OX19, read-out: Minimal Inhibitory Conc.

With `IC(I)=C(I)Cn1nnnc1Cc1ccccc1` [Compound No. 59, 1-(2',3',3'-triiodoallyl)-5-benzyltetrazole], the MIC in [1] (setting [17]) was determined as 1.56 mg/L (≈ 2.7 µM); in assay [2] it was 0.2 mg/L (≈ 0.346 µM); in [3], 1.56 mg/L (≈ 2.7 µM); in the assay with Escherichia coli No. 29 it was 0.78 mg/L (≈ 1.35 µM); with Salmonella typhi 0-901-W, 12.5 mg/L (≈ 21.6 µM); in the assay with Shigella dysenteriae, 0.39 mg/L (≈ 0.675 µM). The MIC with Proteus vulgaris OX-19 (setting [18]) is 1.56 mg/L (≈ 2.7 µM); in [4] (setting [19]) it was 3.13 mg/L (≈ 5.42 µM); in [5], 3.13 mg/L (≈ 5.42 µM).

Turning to `CC(C)c1nnn(CC#CI)n1` [Compound No. 7, 2-(1'-iodopropyn-3'-yl)-5-isopropyltetrazole], the MIC in assay [1] (Staphylococcus aureus, 209P) was determined as 12.5 mg/L (≈ 45.3 µM); in [6], 12.5 mg/L (≈ 45.3 µM); in assay [7] it was 25 mg/L (≈ 90.6 µM); in the assay with Salmonella typhi 0-901-W, 25 mg/L (≈ 90.6 µM); in assay [8], 6.25 mg/L (≈ 22.6 µM); in assay [9], 100 mg/L (≈ 362 µM). The MIC with Proteus vulgaris OX-19 (setting [20]) was 12.5 mg/L (≈ 45.3 µM); in assay [4] (setting [19]) it was 25 mg/L (≈ 90.6 µM); in assay [5] it was over 100 mg/L; in [10], 50 mg/L (≈ 181 µM); in the assay with Candida albicans GA-24 it was at most 0.05 mg/L; in assay [11], 0.78 mg/L (≈ 2.83 µM). Also, the MIC in assay [12], in assay [13] and in [14] was at most 0.05 mg/L each time.

Consider `CCCc1nnn(CC#CI)n1` [Compound No. 5, 2-(1'-iodopropyn-3'-yl)-5-n-propyltetrazole], for which the MIC stood at 12.5 mg/L (≈ 45.3 µM) in [1] (Staphylococcus aureus, 209P); 12.5 mg/L (≈ 45.3 µM) in assay [6]; 50 mg/L (≈ 181 µM) in [7]; 25 mg/L (≈ 90.6 µM) with Salmonella typhi 0-901-W; 6.25 mg/L (≈ 22.6 µM) in assay [8]; 100 mg/L (≈ 362 µM) in [9]. In addition, the MIC is 12.5 mg/L (≈ 45.3 µM) in the assay with Proteus vulgaris OX-19 (setting [20]); 25 mg/L (≈ 90.6 µM) in assay [4] (setting [19]); 100 mg/L (≈ 362 µM) in assay [5]; 25 mg/L (≈ 90.6 µM) in assay [10]; 0.78 mg/L (≈ 2.83 µM) with Candida albicans GA-24; 0.78 mg/L (≈ 2.83 µM) in [11]. Besides, the MIC in assay [12] is 0.05 mg/L (≈ 0.181 µM); in assay [13] it was at most 0.05 mg/L; in assay [14], at most 0.05 mg/L.

Turning to `CC(C)c1nnn(CC(I)=C(I)I)n1` [Compound No. 48, 2-(2',3',3'-triiodoallyl)-5-isopropyltetrazole], the MIC in [1] (setting [17]) stood at 1.56 mg/L (≈ 2.94 µM); in assay [2] it was 0.39 mg/L (≈ 0.736 µM); in assay [3], 0.39 mg/L (≈ 0.736 µM); with Escherichia coli No. 29, 6.25 mg/L (≈ 11.8 µM); with Salmonella typhi 0-901-W, 12.5 mg/L (≈ 23.6 µM); in the assay on Shigella dysenteriae, 3.13 mg/L (≈ 5.91 µM). In addition, the MIC was 6.25 mg/L (≈ 11.8 µM) in the assay with Proteus vulgaris OX-19 (setting [18]); 12.5 mg/L (≈ 23.6 µM) in [4] (Serratia marcescens, MB3848, read-out: Minimal Inhibitory Conc.); 6.25 mg/L (≈ 11.8 µM) in [5]; 12.5 mg/L (≈ 23.6 µM) with Candida albicans GA-24; 12.5 mg/L (≈ 23.6 µM) in [11]; 0.78 mg/L (≈ 1.47 µM) in assay [12]. The results for the MIC in [13] and in [14] were 0.78 mg/L (≈ 1.47 µM) and 3.13 mg/L (≈ 5.91 µM), respectively.

`CC(C)(C)c1nnnn1CC(I)=C(I)I` [Compound No. 45, 1-(2',3',3'-triiodoallyl)-5-tert.-butyltetrazole]: the MIC in assay [1] (setting [17]) is 0.78 mg/L (≈ 1.43 µM); in assay [2], 0.2 mg/L (≈ 0.368 µM); in assay [3] it was 0.78 mg/L (≈ 1.43 µM); in the assay with Escherichia coli No. 29, 6.25 mg/L (≈ 11.5 µM); in the assay with Salmonella typhi 0-901-W it was 50 mg/L (≈ 91.9 µM); in the assay on Shigella dysenteriae it was 3.13 mg/L (≈ 5.75 µM). Further, the MIC with Proteus vulgaris OX-19 (setting [20]) stood at 3.13 mg/L (≈ 5.75 µM); in assay [4] (setting [19]), 12.5 mg/L (≈ 23 µM); in [5] it was 12.5 mg/L (≈ 23 µM).

For the compound `Cc1ccc(-c2nnn(CC#CI)n2)cc1` [Compound No. 31, 2-(1'-Iodopropyn-3'-yl)-5-(p-methylphenyl)tetrazole], the zone of inhibition at 250 µg/mL turned out to be 11.3 mm in [15], 9.6 mm with Bacillus subtilis, 12 mm with Sarcina lutea and 11.4 mm in [16]. Further, the zone of inhibition at 500 µg/mL in assay [15] turned out to be 11.4 mm; in the assay on Bacillus subtilis, 9.6 mm; in the assay with Sarcina lutea, 12 mm; in assay [16], 11.6 mm. Moreover, the MIC with Candida albicans GA-24 came to 0.78 mg/L (≈ 2.41 µM); in assay [11] it was 1.56 mg/L (≈ 4.81 µM); in assay [12], 0.19 mg/L (≈ 0.586 µM); in assay [13], 0.39 mg/L (≈ 1.2 µM); in assay [14], 1.56 mg/L (≈ 4.81 µM).

As for `CCCCCCCc1nnn(CC(I)=C(I)I)n1` [Compound No. 40, 2-(2',3',3'-triiodoallyl)-5-n-heptyltetrazole], the MIC turned out to be 6.25 mg/L (≈ 10.7 µM) in the assay on Candida albicans GA-24; 6.25 mg/L (≈ 10.7 µM) in assay [11]; 0.78 mg/L (≈ 1.33 µM) in [12]; 0.78 mg/L (≈ 1.33 µM) in assay [13]; 6.25 mg/L (≈ 10.7 µM) in [14].

In the case of `CCCc1nnnn1CC(I)=C(I)I` [Compound No. 47, 1-(2',3',3'-triiodoallyl)-5-n-propyltetrazole], the MIC is 6.25 mg/L (≈ 11.8 µM) in the assay on Candida albicans GA-24; 6.25 mg/L (≈ 11.8 µM) in assay [11]; at most 0.05 mg/L in [12]; 0.09 mg/L (≈ 0.17 µM) in assay [13]; 0.78 mg/L (≈ 1.47 µM) in assay [14].

As for `Clc1cc(Cl)cc(-c2nnn(CC#CI)n2)c1` [Compound No. 30, 2-(1'-Iodopropyn-3'-yl)-5-(3",5"-dichlorophenyl)tetrazole], the MIC with Candida albicans GA-24 was 0.78 mg/L (≈ 2.06 µM); in assay [11] it was 0.78 mg/L (≈ 2.06 µM); in assay [12] it was 0.09 mg/L (≈ 0.237 µM); in assay [13], at most 0.05 mg/L; in assay [14] it was 0.19 mg/L (≈ 0.501 µM).

`Clc1ccc(-c2nnn(CC#CI)n2)cc1` [Compound No. 25, 2-(1'-iodopropyn-3'-yl)-5-(p-chlorophenyl)tetrazole]: the zone of inhibition at 250 µg/mL stood at 13.2 mm in [15], 11.2 mm in the assay on Bacillus subtilis, 16 mm with Sarcina lutea and 13 mm in assay [16]. For the same compound, the zone of inhibition at 500 µg/mL in assay [15] stood at 13.7 mm; in the assay on Bacillus subtilis, 11.1 mm; with Sarcina lutea it was 15 mm; in [16], 13 mm. Also, the MIC in the assay on Candida albicans GA-24 was 1.56 mg/L (≈ 4.53 µM); in [12] it was 0.09 mg/L (≈ 0.261 µM); in [13], 0.39 mg/L (≈ 1.13 µM); in [14] it was 0.39 mg/L (≈ 1.13 µM).

Consider `CC(C)c1nnnn1CC(I)=C(I)I` [Compound No. 49, 1-(2',3',3'-triiodoallyl)-5-isopropyltetrazole], for which the MIC with Candida albicans GA-24 was found to be 12.5 mg/L (≈ 23.6 µM); in assay [11], 6.25 mg/L (≈ 11.8 µM); in assay [12], 6.25 mg/L (≈ 11.8 µM); in assay [13], 1.56 mg/L (≈ 2.94 µM); in assay [14] it was 12.5 mg/L (≈ 23.6 µM).
